Test results taken from US11285153B2, “Substituted pyrimidine piperazine compound and use thereof” (SUNSHINE LAKE PHARMA CO., LTD., priority 2017, dated 2022).

Experiments:
5-HT1A receptor = target: T1, 5-HT1A receptor (Homo sapiens, UniProt P08908); assay: h5-HT1A binding affinity test, [3H]8-OH-DPAT, HEK-293 cell membranes; conditions: 0.3 nM [3H]8-OH-DPAT, 22° C., 60 minutes; from IC50 by ChengPrusoff equation
T1 construct: host or cells: human HEK-293 cells, membrane homogenate
T1 sequence (P08908 1-422): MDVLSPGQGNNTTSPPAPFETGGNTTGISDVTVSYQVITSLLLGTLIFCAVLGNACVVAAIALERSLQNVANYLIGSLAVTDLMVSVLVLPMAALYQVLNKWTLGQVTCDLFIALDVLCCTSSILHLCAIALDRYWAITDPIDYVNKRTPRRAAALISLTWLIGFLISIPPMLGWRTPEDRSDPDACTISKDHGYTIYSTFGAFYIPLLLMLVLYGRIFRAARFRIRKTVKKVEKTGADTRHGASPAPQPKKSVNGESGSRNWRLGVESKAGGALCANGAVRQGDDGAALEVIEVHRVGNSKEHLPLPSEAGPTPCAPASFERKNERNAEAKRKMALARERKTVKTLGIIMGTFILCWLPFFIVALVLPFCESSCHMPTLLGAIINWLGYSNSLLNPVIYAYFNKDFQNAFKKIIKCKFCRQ
Protocol: Example B: h5-HT1A Binding Affinity Test
To a mixture of human HEK-293 cell membrane homogenate (36 μg protein), 0.3 nM [^3H]8-OH-DPAT (Perkin-Elmer) and buffer (50 mM Tris-HCl (pH 7.4), 10 mM MgSO4, 0.5 mM EDTA, 2 μg/ml aprotinine) was added test compound or not under a condition of 22° C. The reaction mixture was incubated for 60 minutes.
The standard reference compound was 8-OH-DPAT. To a mixture of the above condition was added 10 μM 8-OH-DPAT to measure the non-specific binding value. A competitive curve was obtained by testing the data of a series of concentrations of 8-OH-DPAT in different experiments.
(§1) The incubated samples were quickly filtered through a glass fiber membrane (GF/B, Packard) impregnated with 0.3% PEI by a 96-well cell collector (Unifilter, Packard) under vacuum, and repeatedly rinsed with cold 50 mM Tris-HCl for several times. The filter was dried and the residual radioactivity was calculated in a scintillation counter (Topcount, Packard) by using scintillation fluid (Microscint 0, Packard). The experimental results were expressed as a percentage of inhibition of specific binding of radioligand to the control group.
The binding assay of [^3H]8-OH-DPAT (0.3 nM) to the 5-HT1A receptor in human HEK-293 cells was performed by a scintillation proximity assay of the membrane. The test compound needed to be tested at least three times at a concentration exceeding 6 log, and the data was subjected to nonlinear regression analysis by a Hill equation curve to obtain an IC50 value, which was then calculated by the ChengPrusoff equation to obtain a Ki value.

[1] = target: T2, humanized 5-HT transporter (SERT) (Homo sapiens, UniProt P31645); assay: Affinity to humanized 5-HT transporter (SERT), [3H]imipramine binding, transfected CHO cell membranes; conditions: 2 nM [3H]imipramine, 22° C., 60 minutes
T2 construct: expressed in transfected cells; host or cells: CHO cells, membrane homogenate
Protocol: Example A: Evaluation of the Affinity of the Compound of the Invention to Humanized 5-HT Transporter Transfected by CHQ Cells
To a mixture of cell membrane homogenate protein (12 μg), 2 nM [^3H] imipramine, buffer (50 mM Tris-HCl (pH 7.4), 120 mM NaCl, 5 mM KCl, and 0.1% BSA) was added test compound or not under a condition of 22° C. The reaction mixture was incubated for 60 minutes.
To the mixture of the above condition was added 10 μM imipramine to measure the non-specific binding value.
as §1, with “Tris-HCl and 150 mM NaCl” for “Tris-HCl”
The standard reference compound was imipramine. The competitive curve was obtained by a series of concentration experiments and the IC50 was calculated.

[2] = Pharmacokinetic evaluation in rats after intravenous or intragastric administration; type: in vivo; conditions: SD, rat, plasma
Protocol: Pharmacokinetics of the compound of the invention in rats, dogs and monkeys were studied and evaluated.
The compound was administered to the tested animals in the form of 5% DMSO+5% Kolliphor HS15+2% (2% HCl)+88% Saline saline solution or 10% DMSO+10% Kolliphor HS15+80% normal saline solution. For the intravenous administration group, the dose was 1 mg/kg, and then the venous blood (0.3 mL) was taken at a time of 0, 0.083, 0.25, 0.5, 1.0, 2.0, 5.0, 7.0, and 24 hours after administration, and centrifuged at 3,000 or 4,000 rpm for 10 minutes. The plasma solution was collected and stored at −20° C. or −70° C. For the intragastric administration group, the dose was 2.5 mg/kg, and then the venous blood (0.3 mL) was taken at a time of 0, 0.083, 0.25, 0.5, 1.0, 2.0, 5.0, 7.0, and 24 hours after administration, and centrifuged at 3,000 or 4,000 rpm for 10 minutes. The plasma solution was collected and stored at −20° C. or −70° C.
The plasma solutions obtained from each of the above groups were subjected to LC/MS/MS analysis.
The LC/MS/MS system for analysis included the Agilent 1200 Series vacuum degasser, binary pump, orifice autosampler, thermostatic column oven, and Agilent G6430A triple quadrupole mass spectrometer with electrospray ionization (ESI) source.
Analysis was performed using a waters XBridge C18 (2.1×50 mm) column. The column was 3.5 μM and injection volume was 5 μL. The analytical conditions were as follows: mobile phase A: water+2 mM ammonium formate+0.1% formic acid mobile phase B: methanol+2 mM ammonium formate+0.1% formic acid. The flow rate was 0.4 mL/min.

mice = assay: Forced swimming test of mice, stationary time; type: in vivo, C57BL/6 mice; conditions: for Stationary time: 3 mg/kg intraperitoneally 30 minutes before the test, last 4 minutes of 6 minutes, Mean ± SEM, vehicle 120.4 ± 16.5
Protocol: The effects of the compound of the invention on the stationary time in a forced swimming test of mice were evaluated in the present invention.
Animals (C57BL/6 mice) were fed in the animal house barrier system one week earlier to adapt to the rearing environment of animal house. Three days before the trial, each animal was touched 2-3 minutes/day. On the day of the experiment, the animals were transferred to the operating room 60 minutes in advance, and were randomly divided into a vehicle group (20% HP-β-CD+80% H2O), a 40 mg/kg dose group of hydrochloride of Desipramine as the standard reference compound, 1, 3, 10 mg/kg dose groups of the phosphate of the test compound, a 3 mg/kg dose group of the hydrochloride of Vilazone, and a 3 mg/kg dose group of hydrochloride of compound A, a total of 7 groups, the number of animals in each group was 15-16. The vehicle, the standard reference compound of Desipramine, the test compound, Vilazodone or Compound A were intraperitoneally injected 30 minutes before the test. The mice were placed in the experimental apparatus during the test. The experimental apparatus was a cylindrical organic transparent glass tank (23 cm high and 12 cm in diameter). The water level was 8 cm from the bottom and the water temperature was 22±2° C. The length of each test was 6 minutes. There was one animal in each sink, recorded by an Ethovision software and a double-blind manual counting analysis. The stationary time of the last 4 minutes of the animal was recorded. All the experimental results were expressed as mean ±standard error (Mean ±SEM). Prism 6.0 statistical software was used to test and analyze the results. The significance of the difference was P<0.05, and P<0.01 was very significant.

T2 sequence (P31645 whole entry): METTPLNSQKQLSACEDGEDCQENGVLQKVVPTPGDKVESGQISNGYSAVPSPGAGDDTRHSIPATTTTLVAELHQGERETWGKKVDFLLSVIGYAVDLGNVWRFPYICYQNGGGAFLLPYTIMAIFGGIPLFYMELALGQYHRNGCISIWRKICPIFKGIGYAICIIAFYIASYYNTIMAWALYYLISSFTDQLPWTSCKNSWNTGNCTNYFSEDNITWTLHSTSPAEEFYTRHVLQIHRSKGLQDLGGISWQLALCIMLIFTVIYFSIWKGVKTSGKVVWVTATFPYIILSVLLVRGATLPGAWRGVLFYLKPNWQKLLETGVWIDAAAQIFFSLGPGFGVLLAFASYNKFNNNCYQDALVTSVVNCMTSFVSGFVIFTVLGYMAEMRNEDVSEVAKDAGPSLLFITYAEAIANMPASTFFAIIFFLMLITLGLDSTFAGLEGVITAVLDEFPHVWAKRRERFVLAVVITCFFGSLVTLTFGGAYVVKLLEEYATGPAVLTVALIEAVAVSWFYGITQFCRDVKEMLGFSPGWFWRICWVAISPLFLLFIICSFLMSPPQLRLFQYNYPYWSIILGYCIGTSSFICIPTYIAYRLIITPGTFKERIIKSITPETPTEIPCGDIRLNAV

Row | SMILES | Ki (5-HT1A receptor) [pM] | IC50 [1] [pM] | also measured
1 | N#Cc1ccc2[nH]cc(CCCN3CCN(c4ncc(-c5cccc(C(N)=O)n5)cn4)CC3)c2c1 [Example 6, 6-(2-(4-(3-(5-cyano-1H-indol-3-yl)propyl)piperazin-1-yl)pyrimidin-5-yl)pyridine-2-carboxamide] | 1100 | 230 | 
2 | N#Cc1ccc2[nH]cc(CCCCN3CCN(c4ncc(-c5cccc(C(N)=O)n5)cn4)CC3)c2c1 [Example 5, 6-(2-(4-(4-(5-cyano-1H-indol-3-yl)butyl)piperazin-1-yl)pyrimidin-5-yl)pyridine-2-carboxamide] | 530 | 660 | 
3 | N#Cc1ccc2[nH]cc(CCCN3CCN(c4ncc(-c5ccc(C(N)=O)nc5)cn4)CC3)c2c1 [Example 4, 5-(2-(4-(3-(5-cyano-1H-indol-3-yl)propyl)piperazin-1-yl)pyrimidin-5-yl)pyridine-2-carboxamide] | 4130 | 810 | 
4 | N#Cc1ccc2[nH]cc(CCCCN3CCN(c4ncc(-c5ccc(C(N)=O)cn5)cn4)CC3)c2c1 [Example 1, 6-(2-(4-(4-(5-cyano-1H-indol-3-yl)butyl)piperazin-1-yl)pyrimidin-5-yl)nicotinamide] | 2130 | 680 | 
5 | N#Cc1ccc2[nH]cc(CCCN3CCN(c4ncc(-c5ccc(C(N)=O)cn5)cn4)CC3)c2c1 [Example 2, 6-(2-(4-(3-(5-cyano-1H-indol-3-yl)propyl)piperazin-1-yl)pyrimidin-5-yl)nicotinamide] | 4310 | 450 | 
6 | N#Cc1ccc2[nH]cc(CCCCN3CCN(c4ncc(-c5ccc(C(N)=O)nc5)cn4)CC3)c2c1 [Example 3, 5-(2-(4-(4-(5-cyano-1H-indol-3-yl)butyl)piperazin-1-yl)pyrimidin-5-yl)pyridine-2-carboxamide] | 2190 | 790 | 
7 | Cc1nc(-c2cnc(N3CCN(CCCc4c[nH]c5ccc(C#N)cc45)CC3)nc2)sc1C(N)=O [drawing 37] |  |  | Stationary time (mice): 75.1 ± 13.3 s
8 | N#Cc1ccc2[nH]cc(CCCCN3CCN(c4ccc5oc(C(N)=O)cc5c4)CC3)c2c1 [Vilazodone] |  |  | Stationary time (mice): 107.8 ± 16.1 s; Effect on stationary time compared with the vehicle group (mice; forced swimming test, same dose (3 mg/kg)): slightly reduce the stationary time of mice, but there is no significant difference

Second part, led by results:

Row | Ki (5-HT1A receptor) [pM] | IC50 [1] [pM] | SMILES | also measured
9 | 1010 | 770 | Cc1nc(-c2cnc(N3CCN(CCCCc4c[nH]c5ccc(C#N)cc45)CC3)nc2)sc1C(N)=O [Example 7, 2-(2-(4-(4-(5-cyano-1H-indol-3-yl)butyl)piperazin-1-yl)pyrimidin-5-yl)-4-methylthiazole-5-formamide] | 
10 | 2140 | 330 | Cc1nc(-c2cnc(N3CCN(CCCc4c[nH]c5ccc(C#N)cc45)CC3)nc2)sc1C(N)=O [Example 8, 2-(2-(4-(3-(5-cyano-1H-indol-3-yl)propyl)piperazin-1-yl)pyrimidin-5-yl)-4-methylthiazole-5-formamide] | AUC(0-inf) ([2]; iv, 1 mg/kg): 1820 ng·h/mL; AUC(0-t) ([2]; iv, 1 mg/kg): 1740 ng·h/mL; Cmax ([2]; iv, 1 mg/kg): 1000 ng/mL; Tmax ([2]; iv, 1 mg/kg): 0.083 h; clearance ([2]; iv, 1 mg/kg): 9.22 mL/min/kg; half-life ([2]; iv, 1 mg/kg): 1.72 h; Vd ([2]; iv, 1 mg/kg, read-out: Vss): 1.3 L/kg; AUC(0-inf) ([2]; po, 2.5 mg/kg): 1550 ng·h/mL; AUC(0-t) ([2]; po, 2.5 mg/kg): 1740 ng·h/mL; Cmax ([2]; po, 2.5 mg/kg): 590 ng/mL; Tmax ([2]; po, 2.5 mg/kg): 1 h; bioavailability ([2]; po, 2.5 mg/kg): 39.8%; half-life ([2]; po, 2.5 mg/kg): 1.58 h
11 | 2160 | 130 | CCOC(=O)c1sc(-c2cnc(N3CCN(CCCc4c[nH]c5ccc(C#N)cc45)CC3)nc2)nc1C [Example 10, ethyl 2-(2-(4-(3-(5-cyano-1H-indol-3-yl)propyl)piperazin-1-yl)pyrimidin-5-yl)-4-methylthiazole-5-formate] | 
12 | 990 | 450 | CCOC(=O)c1sc(-c2cnc(N3CCN(CCCCc4c[nH]c5ccc(C#N)cc45)CC3)nc2)nc1C [Example 9, ethyl 2-(2-(4-(4-(5-cyano-1H-indol-3-yl)butyl)piperazin-1-yl)pyrimidin-5-yl)-4-methylthiazole-5-formate] | 
